In US20260234107A1, “TRYPTAMINES AND METHODS OF TREATING MOOD DISORDERS” (priority 2022, published 2026):
Like-named read-outs stand apart in the source and are kept apart here.

How the values were obtained:
[1] = tested on: monoamine oxidase A and B (MAO-A and MAO-B); experiment: Stability in the presence of monoamine oxidases (human liver mitochondria preparation); design: half-life / microsomal CLint: dose or concentration left out as unconfirmed; settings: for Remaining (t = 60 min) / half-life / microsomal CLint: human liver mitochondria; for half-life / microsomal CLint: human, pH 7.4; for stability in the presence of MAO (in words): human liver mitochondria preparation
Description: Liver Mitochondria Incubations. Human liver mitochondria (Xenotech H0610.M) were used.

5-HT2B = target: T1, 5-HT2B (Homo sapiens, UniProt P41595); experiment: FLIPR Ca2+ flux agonist assay at 5-HT2B; format: cell-based; settings: for 5-HT2B % Act @ Max Dose: Ca2+ flux, HEK293, max dose
T1 construct: host or cells: HEK293
Description: (§1) A solution of 250 mM probenecid in 1 mL FLIPR assay buffer was prepared fresh. This was combined with a fluorescent dye (Fluo-4 Direct™) to make a final assay concentration of 2.5 mM. […] The fluorescent dye was then added to the assay plate along with assay buffer to a final volume of 40 μL. The cell plate was incubated for 50 min at 37° C. and 5% CO2 and placed into the FLIPR Tetra along with the compound plate. 10 μL of references and compounds were then transferred from the compound plate into the cell plate and the fluorescent signal was read.

5-HT1A = target: T2, 5-HT1A (Homo sapiens, UniProt P08908); experiment: FLIPR Ca2+ flux agonist assay at 5-HT1A; format: cell-based; settings: for 5-HT1A % Act @ Max Dose: Ca2+ flux, CHO cells
T2 construct: host or cells: CHO cells
T2 sequence (P08908 1-422): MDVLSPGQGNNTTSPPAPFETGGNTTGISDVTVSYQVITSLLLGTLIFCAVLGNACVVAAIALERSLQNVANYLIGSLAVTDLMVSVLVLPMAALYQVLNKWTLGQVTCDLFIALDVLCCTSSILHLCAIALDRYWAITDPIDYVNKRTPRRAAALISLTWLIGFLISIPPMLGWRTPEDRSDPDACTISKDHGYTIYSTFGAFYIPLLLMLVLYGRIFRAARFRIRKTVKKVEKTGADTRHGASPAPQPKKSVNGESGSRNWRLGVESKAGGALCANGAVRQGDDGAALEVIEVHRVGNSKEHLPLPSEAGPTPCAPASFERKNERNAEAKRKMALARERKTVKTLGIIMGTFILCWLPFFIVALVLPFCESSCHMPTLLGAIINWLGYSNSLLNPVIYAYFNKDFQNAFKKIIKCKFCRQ
Description: as §1

[2] = Stability in mouse brain homogenate; format: in vitro ADME, male CD-1 mice; settings: mouse brain homogenate, 1 μM, 37° C.; for half-life at 1 µM: male, CD-1
Description: Disclosed compounds were tested for stability in mouse brain homogenate (Table 7). There was widely variable stability among the test compounds under the conditions of the experiment.
(§2) Mouse Brain Homogenate Stability. Frozen mouse brain homogenate (pooled from male CD-1 mice, BioreclamationIVT, MSE00BRAINMZA) was thawed in a water bath at 37° C. immediately prior to use. Positive controls and test compounds (final concentration in incubation medium=1 μM for test compounds and 2 μM for controls, all with 2% DMSO) were incubated in duplicate for each time point (0, 10, 30, 60, and 120 min) in the mouse brain homogenate at a total reaction volume of 100 μL at 37° C. At the end of each incubation period, reactions were immediately quenched with 400 μL of acetonitrile containing internal standard (200 ng/mL tolbutamine and 200 ng/mL labetalol) and mixed thoroughly. Plates were then sealed, shaken for 20 min, and centrifuged at 4,000 rpm and 4° C. for 20 min. Aliquots of 50 μL of each supernatant were diluted into 100 μL of water and the mixtures were then shaken again for 10 min.

[3] = Stability in rat brain homogenate; format: in vitro ADME, male Sprague Dawley rats; settings: rat brain homogenate, 1 μM, 37° C.; for half-life at 1 µM: male, Sprague Dawley
Description: Disclosed compounds were tested for stability in rat brain homogenate (Table 8). There was widely variable stability among the test compounds under the conditions of the experiment.
as §2, with “Rat” for “Mouse”, “rat” for “mouse”, “Sprague Dawley rats,” for “CD-1 mice,”, “RAT00BRAINMZA)” for “MSE00BRAINMZA)”

5-HT2A = 5-HT2A (Homo sapiens, UniProt P28223); experiment: FLIPR Ca2+ flux agonist assay at 5-HT2A; format: cell-based; design: host or cells: HEK293; settings: for 5-HT2A % Act @ Max Dose: HEK293, max dose
Description: as §1

[4] = Metabolic stability in human liver microsomes (HLM); design: microsomal CLint / half-life: dose or concentration left out as unconfirmed; settings: both, human, pooled human liver microsomes, pH 7.4
[5] = human liver mitochondria 0.30 mg protein/mL, 37° C.
[6] = Ca2+ flux, HEK293, read-out: 5-HT2A EC50

Sequence of 5-HT2A (P28223 whole entry): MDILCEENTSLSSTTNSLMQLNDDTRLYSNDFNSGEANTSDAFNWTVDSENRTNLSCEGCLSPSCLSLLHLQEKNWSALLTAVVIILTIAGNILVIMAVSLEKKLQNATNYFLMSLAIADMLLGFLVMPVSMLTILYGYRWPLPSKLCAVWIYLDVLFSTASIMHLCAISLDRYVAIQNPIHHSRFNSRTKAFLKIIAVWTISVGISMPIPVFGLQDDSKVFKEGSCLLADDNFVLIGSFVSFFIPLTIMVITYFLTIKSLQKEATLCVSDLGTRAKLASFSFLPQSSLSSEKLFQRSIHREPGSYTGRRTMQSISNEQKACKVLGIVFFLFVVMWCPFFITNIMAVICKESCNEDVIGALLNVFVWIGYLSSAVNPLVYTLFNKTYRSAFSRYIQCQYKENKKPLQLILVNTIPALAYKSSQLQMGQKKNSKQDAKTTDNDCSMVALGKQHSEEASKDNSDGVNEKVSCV
T1 sequence (P41595 whole entry, species assumed): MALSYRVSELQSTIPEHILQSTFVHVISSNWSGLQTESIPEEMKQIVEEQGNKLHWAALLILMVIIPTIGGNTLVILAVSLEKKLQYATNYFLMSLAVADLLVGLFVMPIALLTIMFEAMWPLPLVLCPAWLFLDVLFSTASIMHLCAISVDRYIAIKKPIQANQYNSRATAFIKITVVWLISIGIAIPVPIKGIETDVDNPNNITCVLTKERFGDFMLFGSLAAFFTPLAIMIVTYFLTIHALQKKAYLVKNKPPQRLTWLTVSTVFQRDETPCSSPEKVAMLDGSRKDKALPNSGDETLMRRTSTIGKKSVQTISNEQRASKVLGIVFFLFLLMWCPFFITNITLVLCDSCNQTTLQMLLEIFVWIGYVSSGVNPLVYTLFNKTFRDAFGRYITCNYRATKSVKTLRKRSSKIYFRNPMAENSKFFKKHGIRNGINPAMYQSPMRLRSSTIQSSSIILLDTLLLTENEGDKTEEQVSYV

| SMILES | Remaining (t = 60 min) [1] | half-life [1] | microsomal CLint [1] | EC50 (5-HT2B) | 5-HT2B % Act @ Max Dose (5-HT2B) | EC50 (5-HT1A) | 5-HT1A % Act @ Max Dose (5-HT1A) | half-life at 1 µM [2] | % Compound Remaining (after 120 min) [2] | half-life at 1 µM [3] | % Compound Remaining (after 120 min) [3] | EC50 (5-HT2A) | 5-HT2A % Act @ Max Dose (5-HT2A; Ca2+ flux) | half-life [4] | microsomal CLint [4] | stability in the presence of MAO (in words) [1] | EC50 (5-HT2A; [6]) | also measured |
| --- | --- | --- | --- | --- | --- | --- | --- | --- | --- | --- | --- | --- | --- | --- | --- | --- | --- | --- |
| NCCc1c[nH]c2cccc(O)c12 [Compound 1, 3-(2-aminoethyl)-1H-indol-4-ol] | 51.1% | 70.5 min | 32.8 µL/min/mg | 151 nM | 83.98% | 92600 nM | 49.9% | 12.6 min | 0.0% | 10 min | 0.0% | 33.4 nM | 99.2% | 34.3 min | 40.4 µL/min/mg |  |  |  |
| COc1ccc2[nH]cc(CCN(C)C)c2c1 [Compound 5-MeO-DMT, reference compound] | 47.1% |  |  |  | 20.5% |  | 78.8% |  | 91.2% |  | 0.3% |  |  |  |  | rapidly metabolized by MAO |  | CLint(MAO) [1, 5]: 43.6 µL/min/mg; t1/2 [1, 5]: 52.9 min; t1/2 [2]: >289.1 min; t1/2 [3]: 14.4 min |
| Oc1cccc2[nH]cc(CCNCCF)c12 [Compound 7, 3-(2-((2-fluoroethyl)amino)ethyl)-1H-indol-4-ol] | 85.2% | > 145 min | < 15.9 µL/min/mg | 375 nM | 20.76% | > 100000 nM | 42.13% | 177 min | 61.8% | > 289 min | 77.1% | 47.2 nM | 86.8% | 77 min | 18 µL/min/mg |  |  |  |
| C=CCNCCc1c[nH]c2cccc(O)c12 [Compound 23, 3-(2-(allylamino)ethyl)-1H-indol-4-ol] | 83.5% | > 145 min |  |  |  |  |  | 127 min | 49.6% | 126 min | 52.4% |  |  | 118 min | 11.8 µL/min/mg |  |  |  |
| C#CCNCCc1c[nH]c2cccc(O)c12 [Compound 24, 3-(2-(prop-2-yn-1-ylamino)ethyl)-1H-indol-4-ol] | 87.2% | > 145 min | < 15.9 µL/min/mg | 88.3 nM | 48.26% | > 100000 nM | −3.14% | 97.3 min | 40.5% | 92.4 min | 41.9% | 20.1 nM | 96.07% | 92.4 min | 15 µL/min/mg |  |  |  |
| CNCCc1c[nH]c2ccc(F)c(O)c12 [Compound 26, 5-fluoro-3-(2-(methylamino)ethyl)-1H-indol-4-ol] | 0.1% | 6.3 min | 369 µL/min/mg |  | 13.87% | 3490 nM | 74.21% | 1.7 min | 0% | 2.2 min | 0% | 21 nM | 86.9% | 0.9 min | 1520 µL/min/mg |  |  |  |
| Oc1c(F)ccc2[nH]cc(CCNC3CC3)c12 [Compound 27, 3-(2-(cyclopropylamino)ethyl)-5-fluoro-1H-indol-4-ol] | 32.1% | 36.2 min | 63.9 µL/min/mg | 9.53 nM | 36.08% | 1230 nM | 84.02% | 69.6 min | 29.4% | 15.1 min | 0.4% |  |  | 19.8 min | 70 µL/min/mg | intermediate stability | 7.37 nM |  |
| CCNCCc1c[nH]c2cc(F)cc(O)c12 [Compound 29, 3-(2-(ethylamino)ethyl)-6-fluoro-1H-indol-4-ol] | 99.1% | > 145 min | < 15.9 µL/min/mg |  | 12.18% |  | 16.22% | 59.9 min | 29.9% | 113 min | 51.9% | 17.4 nM | 80.80% | > 145 min | < 9.6 µL/min/mg |  |  |  |
| NCCc1c[nH]c2ccc(F)c(O)c12 [Compound 30, 3-(2-aminoethyl)-5-fluoro-1H-indol-4-ol] | 0.0% | 6.5 min | 356 µL/min/mg | 4.62 nM | 95.46% | 5220 nM | 73.4% | 6.4 min | 0% | 3.9 min | 0.1% |  |  | 9.3 min | 149 µL/min/mg |  | 4.06 nM |  |
| NCCc1c[nH]c2cc(F)cc(O)c12 [Compound 31, 3-(2-aminoethyl)-6-fluoro-1H-indol-4-ol] | 24.6% | 30.1 min | 76.8 µL/min/mg | 5.07 nM | 99.12% | 12500 nM | 18.3% | 20.3 min | 1.6% | 11.4 min | 0% |  |  | 16.9 min | 81.8 µL/min/mg | intermediate stability | 6.36 nM |  |
| NCCc1c[nH]c2c(F)ccc(O)c12 [Compound 32, 3-(2-aminoethyl)-7-fluoro-1H-indol-4-ol] | 24.0% | 28.4 min | 81.4 µL/min/mg | 30.3 nM | 66.55% | > 100000 nM | 38.64% | 29 min | 4.8% | 9.5 min | 0% |  |  | 16 min | 86.5 µL/min/mg | intermediate stability | 7.3 nM |  |
